Legend:
human ETA receptors = target: T1, human ETA receptors (Homo sapiens, UniProt P25101); experiment: Endothelin binding inhibition, Binding Test #1: competition with 125I-ET-1 for ETA receptors on TE 671 cell membranes
T1 construct: endogenous in cells; host or cells: TE 671 cells (ATCC HTB 139), membrane preparation
T1 sequence (P25101 21-427): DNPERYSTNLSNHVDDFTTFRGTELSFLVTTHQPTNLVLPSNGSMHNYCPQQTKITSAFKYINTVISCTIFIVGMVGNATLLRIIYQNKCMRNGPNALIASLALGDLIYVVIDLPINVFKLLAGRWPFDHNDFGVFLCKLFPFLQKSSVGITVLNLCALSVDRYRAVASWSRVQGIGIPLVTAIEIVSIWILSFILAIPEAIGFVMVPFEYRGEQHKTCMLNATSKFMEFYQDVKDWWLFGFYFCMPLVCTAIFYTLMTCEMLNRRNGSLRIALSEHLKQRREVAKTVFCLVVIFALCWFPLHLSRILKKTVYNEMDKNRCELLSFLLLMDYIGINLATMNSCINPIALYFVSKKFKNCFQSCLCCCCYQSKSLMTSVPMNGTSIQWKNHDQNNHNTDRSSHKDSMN
Method: (§1) Cells from multiple flasks were collected by scraping, pooled and centrifuged for 10 min at 190×g. The cells were resuspended in phosphate buffered saline (PBS) containing 10 mM EDTA using a Tenbroeck homogenizer. The suspension was centrifuged at 4° C. at 57,800×g for 15 min, the pellet was resuspended in 5 mL of buffer A (5 mM HEPES buffer, pH 7.4 containing aprotinin (100 KIU/mL)) and then frozen and thawed once. 5 mL of Buffer B (5 mM HEPES Buffer, pH 7.4 containing 10 mM MnCl2 and 0.001% deoxyribonuclease Type 1) was added, the suspension mixed by inversion and then incubated at 37° C. for 30 minutes. The mixture was centrifuged at 57,800×g as described above, the pellet washed twice with buffer A and then resuspended in buffer C (30 mM HEPES buffer, pH 7.4 containing aprotinin (100 KIU/mL) to give a final protein concentration of 2 mg/mL and stored at −70° C. until use.
The membrane suspension (50 μL), containing up to 8 μg of membrane protein, was added to each of (A), (B), or (C). […] Alternatively, the incubation was conducted at 24° C.
The supernatant, containing unbound radioactivity, was decanted and the pellet counted on a Genesys multiwell gamma counter. The degree of inhibition of binding (D) was calculated according to the following equation: [formula]
Each test was generally performed in triplicate.

human ETB receptor = target: T2, human ETB receptor (Homo sapiens, UniProt P24530); experiment: Endothelin binding inhibition, Binding Test #2: competition with 125I-ET-1 for ETB receptors on transfected COS7 cell membranes; conditions: for inhibition at 100 µM: read-out: ETB % inhibition @ 100 μM, @ 100 μM, incubation at 24° C.
T2 construct: expressed in transfected cells; host or cells: COS7 cells
T2 sequence (P24530 27-442): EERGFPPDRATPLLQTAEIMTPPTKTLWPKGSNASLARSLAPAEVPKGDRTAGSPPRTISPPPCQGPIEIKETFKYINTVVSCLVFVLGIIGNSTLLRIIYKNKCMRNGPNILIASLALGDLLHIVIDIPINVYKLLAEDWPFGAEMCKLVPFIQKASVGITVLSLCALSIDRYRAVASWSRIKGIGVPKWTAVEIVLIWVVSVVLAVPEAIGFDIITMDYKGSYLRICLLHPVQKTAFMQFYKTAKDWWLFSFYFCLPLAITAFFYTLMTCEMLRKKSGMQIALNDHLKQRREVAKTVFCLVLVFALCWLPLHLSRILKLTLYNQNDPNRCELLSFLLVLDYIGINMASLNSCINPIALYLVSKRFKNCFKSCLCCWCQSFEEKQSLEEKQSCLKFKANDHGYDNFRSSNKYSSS
Text: Compounds that are potential endothelin antagonists are identified by testing their ability to compete with ^125I-labeled ET-1 for binding to human ETA receptors or ETB receptors present on isolated cell membranes. The effectiveness of the test compound as an antagonist or agonist of the biological tissue response of endothelin can also be assessed by measuring the effect on endothelin induced contraction of isolated rat thoracic aortic rings. The ability of the compounds to act as antagonists or agonists for ETB receptors can be assess by testing the ability of the compounds are to inhibit endothelin-1 induced prostacyclin release from cultured bovine aortic endothelial cells.
COS7 cells were transfected with DNA encoding the ETB receptor, The resulting cells, which express the human ETB receptor, were grown to confluence in T-150 flasks. Membrane was prepared as described above. The binding assay was performed as described above using the membrane preparation diluted with binding buffer to a concentration of 1 μg/50 μL.
as §1, with “Briefly, the COS7 cells, described above, that had been transfected with DNA encoding the ETB receptor and express the human ETB receptor on their surfaces were grown to confluence in T-175 flasks. Cells” for “Cells”, “C.” for “C. at”, “once. Five” for “once. 5”, “2 mg/mL.” for “2 mg/mL and stored at −70° C. until use.”
The binding assay was performed as described above using the membrane preparation diluted to give 1 μg/50 μL of binding buffer.

[1] = incubation at 24° C. (values marked †)
[2] = incubation at 4° C. (values without †)

| Structure (SMILES) | IC50 (human ETA receptors; [1]) [nM] | IC50 (human ETB receptor; [1]) [µM] | IC50 (human ETA receptors; [2]) [nM] | IC50 (human ETB receptor; [2]) [µM] | inhibition at 100 µM (human ETB receptor) [%] |
| --- | --- | --- | --- | --- | --- |
| Cc1ccc(CC(=O)c2sccc2S(=O)(=O)Nc2onc(C)c2Br)c(C)c1 [N-(4-bromo-3-methyl-5-isoxazolyl)-2-(2,4-dimethylphenylacetyl)thiophene-3-sulfonamide] | 0.8 | 3.6 | – | – | – |
| COc1cc(Cc2sc3ccccc3c2S(=O)(=O)Nc2onc(C)c2Br)cc(OC)c1OC [N-(4-bromo-3-methyl-5-isoxazolyl)-2-(3,4,5-trimethoxybenzyl)-benzo[b]thiophene-3-sulfonamide] | 13 | 1.2 | – | – | – |
| COc1ccc(Cc2sc3ccccc3c2S(=O)(=O)Nc2onc(C)c2Br)cc1OC [N-(4-bromo-3-methyl-5-isoxazolyl)-2-(3,4-dimethoxybenzyl)benzo[b]thiophene-3-sulfonamide] | 21 ± 17 | 2.94 ± 1.32 | – | – | – |
| CCc1ccc(Cc2sc3ccccc3c2S(=O)(=O)Nc2onc(C)c2Br)cc1 [N-(4-bromo-3-methyl-5-isoxazolyl)-2-(4-ethylbenzyl)benzo[b]thiophene-3-sulfonamide] | 48 | 1.1 | – | – | – |
| COc1ccc(Cc2sc3ccccc3c2S(=O)(=O)Nc2onc(C)c2Br)cc1 [N-(4-bromo-3-methyl-5-isoxazolyl)-2-(4-methoxybenzyl)benzo[b]thiophene-3-sulfonamide] | 51 | 1.5 | – | – | – |
| Cc1noc(NS(=O)(=O)c2ccsc2CO)c1Br [N-(4-bromo-3-methyl-5-isoxazolyl)-2-(hydroxymethyl)thiophene-3-sulfonamide] | 1550 | – | 160 | 44.1 | – |
| Cc1noc(NS(=O)(=O)c2ccsc2C(=O)Oc2ccccc2)c1Br [N-(4-bromo-3-methyl-5-isoxazolyl)-2-(phenoxycarbonyl)thiophene-3-sulfonamide] | 2710 | – | – | – | 20 |
| Cc1noc(NS(=O)(=O)c2ccsc2C(O)c2ccccc2)c1Br (stereo not drawn) [N-(4-bromo-3-methyl-5-isoxazolyl)-2-(α-hydroxybenzyl)thiophene-3-sulfonamide] | – | – | 337 | 9.37 | – |
| Cc1noc(NS(=O)(=O)c2ccsc2C(=O)Nc2ccccc2C(=O)O)c1Br [N-(4-bromo-3-methyl-5-isoxazolyl)-2-[2-carboxylphenyl)aminocarbonyl]-thiophene-3-sulfonamide] | 210 | 20 | – | – | – |
| Cc1cc2c(cc1C=CCc1sccc1S(=O)(=O)Nc1onc(C)c1Br)OCO2 [N-(4-bromo-3-methyl-5-isoxazolyl)-2-[2-methyl-4,5-(methylenedioxy)cinnamyl]thiophene-3-sulfonamide] | 80.4 | 3.28 | – | – | – |
| Cc1noc(NS(=O)(=O)c2c(Cc3ccc4c(c3)OCO4)sc3ccccc23)c1Br [N-(4-bromo-3-methyl-5-isoxazolyl)-2-[3,4-(methylenedioxy)benzyl]benzo[b]thiophene-3-sulfonamide] | 7.4 ± 1.1 | 0.939 ± 0.262 | 1.5 ± 1.4 | 0.324 ± 0.78 | – |
| Cc1noc(NS(=O)(=O)c2ccsc2NC(=O)Oc2ccc3c(c2)OCO3)c1Br [N-(4-bromo-3-methyl-5-isoxazolyl)-2-[3,4-(methylenedioxy)phenoxycarbonylamino]thiophene-3-sulfonamide] | 87 | 5.9 | – | – | – |
| Cc1cc(C)c(OC(=O)c2sccc2S(=O)(=O)Nc2onc(C)c2Br)c(C)c1 [N-(4-bromo-3-methyl-5-isoxazolyl)-2-[(2,4,6-trimethylphenoxy)carbonyl]thiophene-3-sulfonamide] | 479 | 24.5 | – | – | – |
| Cc1cc(C)c(OCc2sccc2S(=O)(=O)Nc2onc(C)c2Br)c(C)c1 [N-(4-bromo-3-methyl-5-isoxazolyl)-2-[(2,4,6-trimethylphenoxy)methyl]thiophene-3-sulfonamide] | 56.2 | 3.39 | – | – | – |
| Cc1ccc(OC(=O)c2sccc2S(=O)(=O)Nc2onc(C)c2Br)c(C)c1 [N-(4-bromo-3-methyl-5-isoxazolyl)-2-[(2,4-dimethylphenoxy)carbonyl]thiophene-3-sulfonamide] | 291 | 43.2 | – | – | – |
| Cc1ccc(OCc2sccc2S(=O)(=O)Nc2onc(C)c2Br)c(C)c1 [N-(4-bromo-3-methyl-5-isoxazolyl)-2-[(2,4-dimethylphenoxy)methyl]thiophene-3-sulfonamide] | 308 | 4.48 | – | – | – |
| Cc1noc(NS(=O)(=O)c2ccsc2COc2ccc3c(c2Cl)OCO3)c1Br [N-(4-bromo-3-methyl-5-isoxazolyl)-2-[(2-chloro-3,4-methylenedioxy)phenoxymethyl]thiophene-3-sulfonamide] | 13000 | 0.76 | – | – | – |
| Cc1noc(NS(=O)(=O)c2ccsc2C(=O)Nc2ccccc2O)c1Br [N-(4-bromo-3-methyl-5-isoxazolyl)-2-[(2-hydroxyphenyl)aminocarbonyl]thiophene-3-sulfonamide] | 13 | 38 | – | – | – |
| COc1ccccc1OC(=O)c1sccc1S(=O)(=O)Nc1onc(C)c1Br [N-(4-bromo-3-methyl-5-isoxazolyl)-2-[(2-methoxylphenoxy)carbonyl]thiophene-3-sulfonamide] | 761 | – | – | – | 29 |
| Cc1ccccc1OC(=O)c1sccc1S(=O)(=O)Nc1onc(C)c1Br [N-(4-bromo-3-methyl-5-isoxazolyl)-2-[(2-methylphenoxy)carbonyl]thiophene-3-sulfonamide] | 684 | 105 | – | – | – |
| Cc1noc(NS(=O)(=O)c2ccsc2C(=O)NC(=O)c2ccc3c(c2)OCO3)c1Br [N-(4-bromo-3-methyl-5-isoxazolyl)-2-[(3,4-methylenedioxy)benzoyl]aminocarbonyl]thiophene-3-sulfonamide] | 89 | 37 | – | – | – |
| Cc1noc(NS(=O)(=O)c2ccsc2Cc2ccc3c(c2)OCO3)c1Br [N-(4-bromo-3-methyl-5-isoxazolyl)-2-[(3,4-methylenedioxy)benzyl]thiophene-3-sulfonamide] | 270 | 7.7 | – | – | – |
| Cc1noc(NS(=O)(=O)c2ccsc2C(=O)Oc2ccc3c(c2)OCO3)c1Br [N-(4-bromo-3-methyl-5-isoxazolyl)-2-[(3,4-methylenedioxy)phenoxycarbonyl]thiophene-3-sulfonamide] | 7.3 | 6 | – | – | – |
| Cc1noc(NS(=O)(=O)c2ccsc2C(=O)Cc2ccc3c(c2)OCO3)c1Br [N-(4-bromo-3-methyl-5-isoxazolyl)-2-[(3,4-methylenedioxy)phenylacetyl]thiophene-3-sulfonamide] | 9.1 | 5.5 | – | – | – |

— US6632829B2, “Sulfonamides and derivatives thereof that modulate the activity of endothelin” (Texas Biotechnology Corp., priority 1996, dated 2003)
